Measured values taken from ChEMBL document CHEMBL4033637, “Developing DYRK inhibitors derived from the meridianins as a means of increasing levels of NFAT in the nucleus” (Bioorg Med Chem Lett, 2017).

Columns and labels:
[1] = target: Dual specificity tyrosine-phosphorylation-regulated kinase 1A (Homo sapiens, UniProt Q13627)
[2] = target: Glycogen synthase kinase-3 beta (Homo sapiens, UniProt P49841); assay: Inhibition of full-length recombinant human His-tagged GSK3B recombinant in baculovirus expression system using Alexa-Fluor tracer-236 incubated for 60 mins by TR-FRET based Lantha-screen Eu kinase assay
[3] = Induction of nuclear localization of GFP-tagged NFAT (unknown origin) expressed in mouse muscle fibres by DAPI staining based assay

Chain of Glycogen synthase kinase-3 beta (P49841 whole entry): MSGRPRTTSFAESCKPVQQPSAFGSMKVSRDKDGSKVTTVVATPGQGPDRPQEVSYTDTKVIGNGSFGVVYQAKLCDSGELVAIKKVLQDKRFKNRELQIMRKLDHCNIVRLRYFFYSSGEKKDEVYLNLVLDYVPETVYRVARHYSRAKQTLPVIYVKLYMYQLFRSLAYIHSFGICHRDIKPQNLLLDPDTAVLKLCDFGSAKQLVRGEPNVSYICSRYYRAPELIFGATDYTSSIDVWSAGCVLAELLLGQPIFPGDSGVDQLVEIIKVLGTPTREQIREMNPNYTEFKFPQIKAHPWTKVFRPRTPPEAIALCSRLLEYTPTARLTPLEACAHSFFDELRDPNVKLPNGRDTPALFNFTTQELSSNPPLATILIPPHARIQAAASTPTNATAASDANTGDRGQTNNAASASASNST

Row | IC50 [1] | IC50 ([2]; read-out: IC50) | IC50 [2] | EC50 [3] | SMILES
1 | 7.96 µM | 31 µM | – | – | c1cncc(-c2c[nH]c3cnccc23)c1
2 | 0.069 µM | – | Not Active | – | Fc1cc(-c2c[nH]c3cnccc23)ccn1
3 | 0.094 µM | – | Not Active | – | Nc1cc(-c2c[nH]c3c(Cl)cccc23)ccn1
4 | 0.277 µM | – | Not Active | – | c1ccc2c(-c3c[nH]c4cnccc34)ccnc2c1
5 | 2.02 µM | – | Not Active | – | Nc1cc(-c2c[nH]c3cnccc23)ccn1
6 | 0.046 µM | – | Not Active | – | Nc1nccc(-c2c[nH]c3c(Cl)cccc23)n1
7 | 0.079 µM | 22.4 µM | – | – | Nc1nccc(-c2c[nH]c3c(Br)cccc23)n1
8 | 0.012 µM | 1.01 µM | – | – | Fc1ccc(Cn2cc(-c3ccncc3)c3ccncc32)cc1
9 | – | 9.95 µM | – | – | Nc1nccc(-c2c[nH]c3c([N+](=O)[O-])cccc23)n1
10 | 2.9 µM | 12.7 µM | – | – | COc1ccc2c(-c3ccnc(N)c3)c[nH]c2c1
11 | 0.001 µM | 12.3 µM | – | – | Nc1nccc(-c2c[nH]c3cnccc23)n1
12 | 0.406 µM | 10.7 µM | – | – | Nc1nccc(-c2c[nH]c3cc(Cl)ccc23)n1
13 | 0.588 µM | 14.8 µM | – | – | Nc1nccc(-c2c[nH]c3ccccc23)n1
14 | 0.062 µM | 15.3 µM | – | – | Nc1nccc(-c2c[nH]c3cc(C(F)(F)F)ccc23)n1

Further lines, the compound ahead of its results:

Row | SMILES | IC50 [1] | IC50 ([2]; read-out: IC50) | IC50 [2] | EC50 [3]
15 | c1cc(-c2cn(CCCN3CCOCC3)c3cnccc23)ccn1 | 0.109 µM | 7.58 µM | – | –
16 | COc1cc(-c2c[nH]c3cnccc23)ccn1 | 0.351 µM | – | Not Active | –
17 | COc1cccc2c(-c3ccnc(N)n3)c[nH]c12 | 0.242 µM | 15.8 µM | – | –
18 | Nc1cc(-c2c[nH]c3c([N+](=O)[O-])cccc23)ccn1 | 0.285 µM | – | Not Active | –
19 | COc1ccc2c(-c3ccnc(N)n3)c[nH]c2c1 | 0.443 µM | 7.96 µM | – | –
20 | c1cc(-c2cn(CCC3CC3)c3cnccc23)ccn1 | 0.008 µM | 1.14 µM | – | –
21 | N#Cc1cccc2c(-c3ccnc(N)n3)c[nH]c12 | 0.138 µM | 5.16 µM | – | –
22 | Cc1nccc(-c2c[nH]c3cnccc23)n1 | 0.019 µM | – | Not Active | –
23 | Cc1cc(-c2c[nH]c3cnccc23)ccn1 | 0.075 µM | – | Not Active | –
24 | CC(C)n1cc(-c2ccncc2)c2ccncc21 | 0.008 µM | 0.66 µM | – | 2.8 µM
25 | Nc1cc(-c2c[nH]c3cc(C(F)(F)F)ccc23)ccn1 | 4.33 µM | – | Not Active | –
26 | N#Cc1cccc2c(-c3ccnc(N)c3)c[nH]c12 | 0.79 µM | 13.9 µM | – | –
27 | c1cc(-c2c[nH]c3cnccc23)ccn1 | 0.001 µM | 9.23 µM | – | –
28 | COc1ccc2c(c1)[nH]c1c(C)nccc12 [HARMINE] | – | – | Not Active | –
29 | COc1cccc2c(-c3ccnc(N)c3)c[nH]c12 | 2.14 µM | – | Not Active | –
30 | Nc1cc(-c2c[nH]c3cc(Cl)ccc23)ccn1 | 2.94 µM | – | Not Active | –
31 | Clc1cnccc1-c1c[nH]c2cnccc12 | 0.061 µM | 9.61 µM | – | –
32 | Cn1cc(-c2ccncc2)c2ccncc21 | 0.089 µM | 4.78 µM | – | –
